Measured values as given in paper PMC12290673, “Antileishmanial and Antitoxoplasmal Activities of 1,4-Dihydropyridines” (ACS Omega, 2025).

What was measured:
Vero cells = experiment: Cytotoxicity assay (MTT), Vero cells; type: cell-based, African Green Monkey; settings: Chlorocebus sabaeus, 72 h, mean ± SD
Protocol: (§1) The MTT colorimetric assay was conducted to assess the cytotoxicity of the compounds according to a method described previously. Briefly, Vero cells or macrophages were cultured in 96-well plates (5 × 10^3 cells/well/200 μL) in RPMI 1640 medium with 10% FBS at 37 °C and under 5% CO2 for 24 h. Thereafter, PBS was used to wash the cells. Then, the compounds in RPMI complete medium with 10% FBS (at varying concentrations of 50, 25, 12.5, 6.25, 3.13, 1.65, 0.75, or 0.37 μg mL^–1) were added to 96-well plates and incubated for 72 h. Cells treated with a medium containing only DMSO (1%) were used as the negative control. After washing, MTT (1 mg mL^–1 in RPMI 1640 medium) was added to each well. The cells were incubated for 4 h, and the supernatant was removed. Next, 150 μL of DMSO was added, and a microplate absorbance spectrophotometer was applied for colorimetric analysis (λ = 540 nm). Cytotoxic effects were expressed by IC50 values (concentration that caused a 50% reduction of viable cells). The experiment was performed in triplicate.

L. major amastigotes = experiment: Activity against L. major amastigotes in peritoneal macrophages (percentage of infected macrophages, Giemsa, 72 h); type: cell-based, Leishmania major; settings: Leishmania major, intracellular amastigotes, mean ± SD, read-out: EC50 L. major ama
Protocol: (§2) L. major promastigotes were isolated and maintained according to a described method. BALB/c mice were injected at the hind footpads with 1 × 10^6 L. major metacyclic promastigotes. L. major amastigotes were collected from the infected mice. After 8 weeks had elapsed since inoculation, Schneider’s medium (Invitrogen, USA) containing antibiotics and 10% FBS was used to transform isolated amastigotes into promastigotes by incubation at 26 °C. Amastigote-derived promastigotes with less than five in vitro passages were only used for infection.
(§3) Female BALB/c mouse peritoneal macrophages (6–8 weeks old) were used to culture L. major amastigotes to assess the activity of the compounds against amastigotes. Briefly, 1 mL of 3% Brewer’s thioglycollate medium/mouse was injected into the peritoneal cavity. After 4 days, the abdominal skin was removed to expose the peritoneal wall. Then, 3 mL of RPMI 1640 medium was injected before cells were collected by aspiration, whereupon 96-well plates containing RPMI 1640 medium with 10% FBS were used to culture 5 × 10^4 cells/well, which were incubated at 37 °C under 5% CO2 for 4 h. After washing with PBS, RPMI 1640 medium containing 5 × 10^5 promastigotes were added to each well. Next, the cells were incubated at 37 °C under humidified 5% CO2 for 24 h to enhance infection and differentiation of amastigotes. Washing with PBS several times removed free promastigotes. Fresh complete RPMI 1640 medium containing one of the tested compounds or AmB at the desired final concentration (50, 25, 12.5, 6.25, 3.13, 1.65, 0.75, or 0.37 μg mL^–1) was added and incubated at 37 °C under a humidified 5% CO2 atmosphere for 72 h. DMSO (1%), only in complete RPMI media, was used as the negative control. The percentage of infected macrophages was assessed microscopically after the medium was removed, followed by washing with PBS, fixation with methanol, and staining with Giemsa. The reading was performed in triplicate. Handling of the laboratory animals followed the instructions and rules of the Committee of Research Ethics, Deanship of Scientific Research, Qassim University, permission number 20–03–20.

macrophages = experiment: Cytotoxicity assay (MTT), macrophages; type: cell-based, BALB/c mouse; settings: Mus musculus, Macrophage; 72 h, mean ± SD; read-out: IC50 macro
Protocol: as §3, §1

[1] = system: L. amazonensis amastigotes; design: method as in Oliveira and co-workers; settings: ref Oliveira and co-workers; read-out: IC50 against L. amazonensis amastigotes; cited from earlier work
L. major promastigotes = experiment: Activity against L. major promastigotes (MTT, 72 h); type: cell-based, Leishmania major; settings: Leishmania major, mean ± SD, read-out: EC50 L. major prom
Protocol: as §2
To assess the activity of the compounds against L. major promastigotes, 10^6 promastigotes/mL were cultured in 96-well plates in Schneider’s medium with 10% FBS. Then, the compounds or amphotericin B (AmB) were added to obtain the final concentrations (50, 25, 12.5, 6.25, 3.13, 1.65, 0.75, or 0.37 μg mL^–1). Negative control wells contained cultures with DMSO (1%) only. Plates were incubated at 26 °C for 72 h to evaluate the antiproliferative effect. The colorimetric MTT method was used to count viable promastigotes under a microplate absorbance spectrophotometer (xMark, Bio-Rad, USA) at 570 nm. The experiment was performed in triplicate.

[2] = system: T. gondii tachyzoites (RH strain); experiment: Anti-Toxoplasma activity (infection index in Vero cells, 72 h); type: cell-based, Toxoplasma gondii; settings: Toxoplasma gondii, Vero, mean ± SD
Protocol: Tachyzoites of the T. gondii RH strain were cultivated in Vero cells according to a published method. Complete RPMI 1640 medium (Invitrogen, USA) with 10% fetal bovine serum (FBS, Invitrogen, USA) was used to culture Vero cells in 96-well plates (5 × 10^3 cells/well in 200 μL of medium), which were incubated at 37 °C and under 5% CO2 for 24 h. This was followed by washing with phosphate-buffered saline (PBS) to remove the medium. Then, RPMI 1640 medium with 2% FBS containing T. gondii tachyzoites (RH strain) at a ratio of 5 (parasite): 1 (Vero cells) was added. After incubation at 37 °C and under 5% CO2 for 5 h, the cells were washed with PBS and overlaid with medium containing one of the tested compounds or atovaquone (ATO) at 50, 25, 12.5, 6.25, 3.13, 1.65, 0.75, or 0.37 μg mL^–1.
After incubation at 37 °C and under 5% CO2 for 72 h, the cells were stained with 1% toluidine before being examined under an inverted photomicroscope (MCD-400, Leica, Japan) to determine the T. gondii infection index (number of infected cells from 200 tested cells). The experiment was performed in triplicate.

CCOC(=O)C1=C(C)NC2=C(C(=O)CC(C)(C)C2)C1c1cccc(F)c1 (stereo not drawn) [Compound 7]
IC50 (Vero cells): > 58.2 µM
EC50 (L. major amastigotes): > 58.2 µM
IC50 (macrophages): > 58.2 µM
IC50 [1]: 12.5 µM
EC50 (L. major promastigotes): > 58.2 µM
EC50 [2]: > 58.2 µM
